In ChEMBL document CHEMBL1137813, “An extract of Tagetes lucida and its phenolic constituents as antioxidants” (J Nat Prod, 2002):

test system: Radical scavenging activity; assay: Antioxidant activity assessed as DPPH radical scavenging activity after 20 mins by UV-visible spectrophotometry; format: functional

| Compound | EC50 |
| --- | --- |
| O=C(O)/C=C/c1ccc(O)c(O)c1 [CAFFEIC ACID] | 3 µg |
| O=C(O)c1cc(O)c(O)c(O)c1 [GALLIC ACID] | 1.2 µg |
| O=c1c(O)c(-c2ccc(O)cc2)oc2cc(O)cc(O)c12 [KAEMPFEROL] | 4.4 µg |
| O=c1c(O)c(-c2ccc(O)c(O)c2)oc2cc(O)cc(O)c12 [QUERCETIN] | 2.3 µg |

Results, then the compound that gave them:

| EC50 | Compound |
| --- | --- |
| 6.9 µg | O=c1c(O)c(-c2ccc(O)cc2)oc2cc(O[C@@H]3O[C@H](CO)[C@@H](O)[C@H](O)[C@H]3O)c(O)c(O)c12 |
| 4.6 µg | O=c1c(O)c(-c2ccc(O)c(O)c2)oc2cc(O[C@@H]3O[C@H](CO)[C@@H](O)[C@H](O)[C@H]3O)c(O)c(O)c12 |
| 10.1 µg | Cc1c(C)c2c(c(C)c1O)CC[C@@](C)(CCC[C@H](C)CCC[C@H](C)CCCC(C)C)O2 [ALPHA-TOCOPHEROL] |
| 4.8 µg | C[C@@H]1O[C@@H](OC[C@H]2O[C@@H](Oc3c(-c4ccc(O)c(O)c4)oc4cc(O)cc(O)c4c3=O)[C@H](O)[C@@H](O)[C@@H]2O)[C@H](O)[C@H](O)[C@H]1O [RUTIN] |
